From publication PMC4562501 (Anesthesiology, 2014)
Read-outs that look alike come from different tables or passages of the source.

Tests used:
[1] = test system: healthy volunteers; experiment: Miosis; format: in vivo, human
[2] = oral methadone; for Plasma Cmax/dose: control session, n=16, mean ± SD
[3] = clinical; conditions: both, human, in vivo, po, oral methadone; for Tmax: Plasma Tmax; for half-life: Plasma t½
[4] = test system: healthy volunteers; experiment: Miosis; format: in vivo, human; conditions: IV methadone
[5] = test system: healthy volunteers; experiment: Thermal analgesia; format: in vivo, human; conditions: IV methadone
[6] = racemic methadone; cited from earlier work
[7] = test system: P-gp; conditions: Caco-2 cells; cited from earlier work
[8] = test system: healthy volunteers; experiment: Thermal analgesia; conditions: oral methadone
[9] = Intravenous methadone pharmacokinetics, protocol 2; format: in vivo; conditions: both, human, plasma
[10] = test system: P-gp; conditions: tariquidar 6 mg/kg, humans; cited from earlier work
[11] = test system: P-gp; conditions: well-known P-gp substrate, for comparison; cited from earlier work

CCC(=O)C(C[C@@H](C)N(C)C)(c1ccccc1)c1ccccc1 [R-Methadone, R-methadone]
Plasma concentration at which miosis was detectable (average) ([1]; plasma R-methadone): 5 ng/mL

CC=C1N(C)C(C)CC1(c1ccccc1)c1ccccc1 (stereo not shown) [R-EDDP, 2-ethylidene-1,5-dimethyl-3,3-diphenylpyrrolidine]
Plasma AUC0-96/dose ([2]; control): 6.7 ± 1.6 ng·h/mL/mg
Urine %dose eliminated (0-24 h) ([2]; control): 4.2 ± 2.3 %dose
Urine %dose eliminated (0-96 h) ([2]; control): 9 ± 4 %dose
Plasma Cmax/dose [2]: 0.24 ± 0.09 ng/mL/mg
Plasma AUC0-96/dose ([2]; cyclosporine-treated): 8.2 ± 1.9 ng·h/mL/mg
Urine %dose eliminated (0-24 h) ([2]; cyclosporine-treated): 4.2 ± 1.8 %dose
Urine %dose eliminated (0-96 h) ([2]; cyclosporine-treated): 10 ± 4 %dose
Tmax ([3]; control): 2.5 ± 0.5 h
Tmax ([3]; cyclosporine-treated): 4.1 ± 1.1 h
half-life ([3]; control): 57 ± 22 h
half-life ([3]; cyclosporine-treated): 73 ± 38 h

CC=C1N(C)C(C)CC1(c1ccccc1)c1ccccc1 (stereo not shown) [S-EDDP, 2-ethylidene-1,5-dimethyl-3,3-diphenylpyrrolidine]
Plasma AUC0-96/dose ([2]; control): 11.6 ± 3.2 ng·h/mL/mg
Plasma Tmax ([2]; control): 2.3 ± 0.7 h
Plasma t½ ([2]; control): 87 ± 25 h
Urine %dose eliminated (0-24 h) ([2]; control): 7.2 ± 3.8 %dose
Urine %dose eliminated (0-96 h) ([2]; control): 15 ± 6 %dose
Plasma Cmax/dose [2]: 0.35 ± 0.17 ng/mL/mg
Plasma AUC0-96/dose ([2]; cyclosporine-treated): 14.4 ± 3.5 ng·h/mL/mg
Plasma t½ ([2]; cyclosporine-treated): 102 ± 39 h
Urine %dose eliminated (0-24 h) ([2]; cyclosporine-treated): 7.4 ± 3.7 %dose
Urine %dose eliminated (0-96 h) ([2]; cyclosporine-treated): 16 ± 8 %dose
Plasma AUC0-96 (EDDP/methadone) ratio (cyclosporine/control) ([2]; geometric mean and 90% confidence interval): 1.15 (1.04, 1.27)

CCC(=O)C(CC(C)N(C)C)(c1ccccc1)c1ccccc1 (stereo not shown) [methadone]
Miotic response (average) ([1]; oral methadone): 2 mm
Peak miosis (dose-adjusted) ([1]; oral methadone, controls): 1.4 ± 0.4 mm/mg
Peak miosis (dose-adjusted) ([1]; oral methadone, cyclosporine-treated subjects): 1.3 ± 0.5 mm/mg
Miotic response (average) [4]: 2.5 mm
Peak miosis ([4]; controls): 3.1 ± 1.0 mm
Peak miosis ([4]; cyclosporine-treated subjects): 3.2 ± 0.8 mm
Analgesic effect (thermal) [5]: minimal analgesic effects
Median minimal effective (postoperative) analgesia threshold [6]: 31 ng/mL
Reduction of rhodamine transport [7]: 25%
Maximally tolerated temperature (method of limits) [8]: increased the maximally tolerated temperature
Verbal analog ratings to discrete temperatures [8]: small and brief analgesic effect

CCC(=O)C(C[C@H](C)N(C)C)(c1ccccc1)c1ccccc1 [S-Methadone, S-methadone]
AUC(0-t) [9]: 282 ± 68 ng·h/mL
AUC(0-t) ([9]; 0.1 mg/kg): 276 ± 47 ng·h/mL
Cmax ([9]; 0.1 mg/kg): 32.2 ± 7.9 ng/mL
Tmax ([3]; control): 2 ± 0.5 h
Tmax ([3]; cyclosporine-treated): 4.6 ± 2.3 h

CC=C1N(C)C(C)CC1(c1ccccc1)c1ccccc1 (stereo not shown) [EDDP, 2-ethylidene-1,5-dimethyl-3,3-diphenylpyrrolidine]
Increase of EDDP/methadone AUC ratio by cyclosporine [2]: 11-15%

COc1cc2c(cc1OC)CN(CCc1ccc(NC(=O)c3cc(OC)c(OC)cc3NC(=O)c3cnc4ccccc4c3)cc1)CC2 [tariquidar]
Increase in brain concentrations of (R)-[11C]verapamil [10]: 2.5 fold
Increase in brain concentrations of [11C]N-desmethyl-loperamide [10]: 4 fold

CN(C)C(=O)C(CCN1CCC(O)(c2ccc(Cl)cc2)CC1)(c1ccccc1)c1ccccc1 [loperamide]
Transport ratio [11]: exceeds 10
